Results reported in the supplement of paper PMC7224384.

Columns and labels:
[1] = tested on: MDA-MB-453; assay: drug sensitivity score (DSS), single agent (DSS (weighted AUC score)); higher = more sensitive (stronger viability decrease); extreme values may be limits of the assay; details: BLU9931 0 nM; 72 h
Summary of the method: (§1)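 Compounds from the FIMM Oncology set were predispensed in singlicate at five 10-fold dilutions (10,000-fold range) on 384-well plates. Each well then received 2000 MDA-MB-453 cells in medium with or without an FGFR4 inhibitor (100 nM final) and was kept at 37 °C, 5% CO2. Cellular ATP was read with CellTiterGlo 2.0 after 72 h and normalised per plate to percent viability from control wells. The drug sensitivity score is a weighted area under a four-parameter logistic fit.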

[2] = tested on: MDA-MB-453; assay: drug sensitivity score (DSS), in combination with BLU9931 (DSS (weighted AUC score)); higher = more sensitive (stronger viability decrease); extreme values may be limits of the assay; details: BLU9931 100 nM; 72 h
Summary of the method: as §1

Compound | drug sensitivity score [1] | drug sensitivity score [2]
NS(=O)(=O)OC[C@@H]1C[C@@H](n2ccc3c(N[C@H]4CCc5ccccc54)ncnc32)C[C@@H]1O [Pevonedistat] | 7 | 3.3
O=C(Nc1cc(Cl)cc2c1[nH]c1cnccc12)c1cccnc1 [PS-1145] | 0 | 0.3
N#CC1(c2ccc(NC(=O)c3cccnc3NCc3ccncc3)cc2)CCCC1 [Apatinib] | 0.7 | 0
CN(C)C(=O)c1ccc(S(=O)(=O)c2ccc(NC(=O)[C@@](C)(O)C(F)(F)F)c(Cl)c2)cc1 [AZD7545] | 0.1 | 0.2
CC(C)n1cnc2c(NCCc3ccc(O)cc3)nc(-c3csc4ccccc34)nc21 [StemRegenin 1] | 0.3 | 0.4
Cn1cc(-c2cnn3c(N)c(Br)c([C@@H]4CCCNC4)nc23)cn1 [MK-8776] | 1.1 | 1.3
CC#CC(=O)N1CC[C@@H](n2c(=O)n(-c3ccc(Oc4ccccc4)cc3)c3c(N)ncnc32)C1 [Tirabrutinib] | 5.7 | 6.3
NS(=O)(=O)NCCNc1nonc1/C(=N/O)Nc1ccc(F)c(Br)c1 [Epacadostat] | 0 | 0
O=c1sn(-c2cccc3ccccc23)c(=O)n1Cc1ccccc1 [Tideglusib] | 0 | 0
NC(=O)Nc1cc(-c2cccc(F)c2)sc1C(=O)N[C@H]1CCCNC1 [AZD7762] | 5 | 4
CO[C@H]1C[C@@H]2CC[C@@H](C)[C@@](O)(O2)C(=O)C(=O)N2CCCC[C@H]2C(=O)O[C@H]([C@H](C)C[C@@H]2CC[C@@H](OCCO)[C@H](OC)C2)CC(=O)[C@H](C)/C=C(\C)[C@@H](O)[C@@H](OC)C(=O)[C@H](C)C[C@H](C)/C=C/C=C/C=C/1C [Everolimus] | 9.5 | 13.6
Nc1nc(NC2CC2)cc(-c2cccc(Cl)c2Cl)n1 [TH588] | 2.4 | 1.7
NC(=O)N1CCC(CC(=O)N2CCC([C@H]3c4ncc(Br)cc4CCc4cc(Cl)cc(Br)c43)CC2)CC1 [Lonafarnib] | 0 | 0
CCNCCS(=O)(=O)NC[C@@]1(c2ccccc2)SC(NC(=O)C(C)(C)C)=NN1C(=O)C(C)(C)C [Litronesib] | 17.3 | 13
CCCCCCCCCCCCCCCCCCOP(=O)([O-])OC1CC[N+](C)(C)CC1 [Perifosine] | 0 | 0
COc1cc2nccc(Oc3ccc(NC(=O)NC4CC4)c(Cl)c3)c2cc1C(N)=O [Lenvatinib] | 3.9 | 0.9
C#Cc1cccc(Nc2ncnc3cc4c(cc23)OCCOCCOCCO4)c1 [Icotinib] | 1.8 | 1.9
C[C@H]1O[C@@H](O[C@H]2[C@@H](O)C[C@H](O[C@H]3[C@@H](O)C[C@H](O[C@H]4CC[C@@]5(C)[C@H](CC[C@@H]6[C@@H]5C[C@@H](O)[C@]5(C)[C@@H](C7=CC(=O)OC7)CC[C@]65O)C4)O[C@@H]3C)O[C@@H]2C)C[C@H](O)[C@@H]1O [Digoxin] | 8.2 | 10.6
COc1cc2ncnc(Oc3cccc(NC(=O)Nc4cc(C(C)(C)C(F)(F)F)on4)c3)c2cc1OC | 5.1 | 3.2
Cc1nc(C(=O)NCC(=O)O)c(O)c2ccc(Oc3ccccc3)cc12 [Roxadustat] | 0 | 0
Cc1nc(Nc2ncc(C(=O)Nc3c(C)cccc3Cl)s2)cc(N2CCN(CCO)CC2)n1 [Dasatinib] | 0 | 0
Nc1nc(F)nc2c1ncn2[C@@H]1O[C@H](CO)[C@@H](O)[C@@H]1O [Fludarabine] | 0 | 0
Nc1ccn([C@@H]2O[C@H](CO)[C@@H](O)[C@@H]2O)c(=O)n1 [Cytarabine] | 0.8 | 0.1
C[C@@H](Nc1cc(F)cc(F)c1)c1cc(C(=O)N(C)C)cc2c(=O)cc(N3CCOCC3)oc12 [AZD-8186] | 1.7 | 2.3
CCc1c(C(=O)C(N)=O)c2c(OCC(=O)O)cccc2n1Cc1ccccc1 [Varespladib] | 0 | 0.8
COc1cc2ncnc(Nc3cccc(Cl)c3F)c2cc1OC(=O)N1CCN(C)C[C@H]1C [AZD3759] | 0 | 0.9
CCN(CC)CCNC(=O)c1c(C)[nH]c(/C=C2\C(=O)Nc3ccc(-c4csc(-c5ccccc5)n4)cc32)c1C [Amcasertib] | 2.5 | 1

Compound | drug sensitivity score [1] | drug sensitivity score [2]
O=C(O)CC1CC(c2ccccc2)=NO1 (stereo not drawn) [VGX-1027] | 0 | 0
Cc1ccc(F)c(NC(=O)Nc2ccc(-c3cccc4[nH]nc(N)c34)cc2)c1 [Linifanib] | 0 | 0
COc1cc2nccc(Oc3ccc(NC(=O)C4(C(=O)Nc5ccc(F)cc5)CC4)cc3)c2cc1OC [Cabozantinib] | 1.3 | 1.6
CC(C)(O)CC(=O)NCCn1ccc2ncnc(Nc3ccc(Oc4cccc(C(F)(F)F)c4)c(Cl)c3)c21 [TAK-285] | 5.4 | 6.4
Cc1cc(Nc2ncc(Cl)c(Nc3ccccc3S(=O)(=O)C(C)C)n2)c(OC(C)C)cc1C1CCNCC1 [Ceritinib] | 1.8 | 1.9
O=c1[nH]cc(F)c(=O)[nH]1 [Fluorouracil] | 2.1 | 0.1
CN(C)C/C=C/C(=O)Nc1cc2c(Nc3ccc(F)c(Cl)c3)ncnc2cc1O[C@H]1CCOC1 [Afatinib] | 6.2 | 10.1
CC(=O)O[C@@]12CO[C@@H]1C[C@H](O)[C@@]1(C)C(=O)[C@H](O)C3=C(C)[C@@H](OC(=O)[C@H](O)[C@@H](NC(=O)OC(C)(C)C)c4ccccc4)C[C@@](O)([C@@H](OC(=O)c4ccccc4)[C@H]21)C3(C)C [Docetaxel] | 18.3 | 14.1
COc1c(C)cnc(Cn2cnc3c(Cl)nc(N)nc32)c1C [BIIB021] | 19.5 | 20.1
C=CCN(/C=C1/C(=O)O[C@H](COC)[C@@]2(C)C1=C(O)C(=O)C1=C2[C@H](OC(C)=O)C[C@]2(C)C(=O)CC[C@@H]12)CC=C [Sonolisib] | 0 | 0
Cc1ccc(NC(=O)c2ccc(CN3CC[C@H](N(C)C)C3)c(C(F)(F)F)c2)cc1Nc1nccc(-c2cncnc2)n1 [Bafetinib] | 0 | 0
O=C(O)CNC(=O)c1c(O)c2ccccc2n(Cc2ccccc2)c1=O [IOX-2] | 0 | 0
N.N.[Cl][Pt][Cl] [Cisplatin] | 6.5 | 6.5
O=S(=O)(c1cccc2c(O)nccc12)N1CCCNCC1 [Hydroxyfasudil] | 0 | 0.2
CN(C)c1cc2c(cc1Sc1nc3c(N)nccc3n1CCNCC(C)(C)C)OCO2 [CUDC-305] | 17.6 | 15.9
O=C(O)c1ccc2c(c1)nc(Nc1cccc(Cl)c1)c1ccncc12 [Silmitasertib] | 8.1 | 7.6
CN(Cc1cnc2nc(N)nc(N)c2n1)c1ccc(C(=O)N[C@@H](CCC(=O)O)C(=O)O)cc1 [Methotrexate] | 1 | 0
CNC(=O)c1cc(Oc2ccc(NC(=O)Nc3ccc(Cl)c(C(F)(F)F)c3)c(F)c2)ccn1 [Regorafenib] | 3 | 1.5
Nc1cc(F)ccc1NC(=O)c1ccc(CNC(=O)/C=C/c2cccnc2)cc1 [Tucidinostat] | 9.8 | 10.1
CC(C)C[C@H](NC(=O)[C@@H](COC(C)(C)C)NC(=O)[C@H](Cc1ccc(O)cc1)NC(=O)[C@H](CO)NC(=O)[C@H](Cc1c[nH]c2ccccc12)NC(=O)[C@H](Cc1cnc[nH]1)NC(=O)[C@@H]1CCC(=O)N1)C(=O)N[C@@H](CCCNC(=N)N)C(=O)N1CCC[C@H]1C(=O)NNC(N)=O [Goserelin] | 0 | 0
CCc1nc(C(N)=O)c(Nc2ccc(N3CCC(N4CCN(C)CC4)CC3)c(OC)c2)nc1NC1CCOCC1 [Gilteritinib] | 0 | 0
CC(O)c1cc(C(=O)N[C@@H](C)Cn2ccc(-c3ccc(C#N)c(Cl)c3)n2)n[nH]1 (stereo partly drawn) [ODM-201] | 1.1 | 0.3
Cn1cc(-c2ccc(F)c(C(F)(F)F)c2)nc1C1CCN(c2ncnc3[nH]ncc23)CC1 | 1.8 | 3.9
COc1cc(Nc2ncc(F)c(Nc3ccc4c(n3)NC(=O)C(C)(C)O4)n2)cc(OC)c1OC [Tamatinib] | 0 | 0
CO[C@@H](C(=O)N1Cc2[nH]nc(NC(=O)c3ccc(N4CCN(C)CC4)cc3)c2C1)c1ccccc1 [Danusertib] | 0.3 | 0
Cc1ncc(-c2ccnc(Nc3ccc(S(C)(=O)=O)cc3)n2)n1C(C)C [AZD-5438] | 6.1 | 7.9
CC(C)c1c(C(=O)Nc2ccccc2)c(-c2ccccc2)c(-c2ccc(F)cc2)n1CC[C@@H](O)C[C@@H](O)CC(=O)O [Atorvastatin] | 0 | 0
